Test results taken from patent US11358962B2, “2-hetaryl imidazol[1,2-a]pyridine derivatives” (Hoffmann-La Roche Inc., priority 2013, dated 2022).

System: native tau aggregates
Assay: TAU radioligand in vitro displacement assay ([3H]T808, autoradiography on human AD brain sections)
Format: binding
Details: compound 10 nM, radioligand [3H]T808 10 nM
From the text: TAU Radioligand-In-Vitro Displacement Assay
This in vitro binding assay assesses the affinity of compounds for native tau aggregates.
AD human brains are purchased from Banner Sun Health Research Institute (Sun City, Ariz., USA). Pathological diagnosis of AD is made according to standard NIA-Reagan Institute criteria based on neuropathological data. The radioligand [^3H]T808 was synthesized in-house ([^3H]-2-[4-(2-Fluoro-ethyl)-piperidin-1-yl]-benzo[4,5]imidazo[1,2-a]pyrimidine, radiochemical purity 99.0%). As a reference cold T808 is used (2-[4-(2-Fluoro-ethyl)-piperidin-1-yl]-benzo[4,5]imidazo[1,2-a]pyrimidine). For the autoradiography FujiFilm Imaging Plates (BAS-IP TR 2025) are exposed to the sections and read with a FujiFilm IP reader (BAS-5000).
Ten μm thick human AD brain sections are generated with a cryostat (Leica CM3050) at −17° C. chamber temperature and −15° C. object temperature. Sections are transferred to Histobond+ microscope slides (Marienfeld Laboratory Glasware). After drying for 3 hours at room temperature the sections are stored at −20° C. The sections are incubated with the radioligand (10 nM) and the respective cold compound (at various concentrations) in 50 mM Tris buffer, pH 7.4 at room temperature for 30 min. After washing 3× 10 min at 4° C. in 50 mM Tris buffer, pH 7.4 and 3 quick dips in H2O dist. at 4° C. the sections are dried at 4° C. for 3 h. The sections are placed in a FujiFilm Cassette (BAS 2025), exposed with an Imaging Plate for five days and afterwards scanned with a resolution of […].
The signal intensity (Dens−PSL/mm2) in the region of interest (ROI) of the autoradiogram is quantified with the software MCID analysis (version 7.0, Imaging Research Inc.). The specific binding (SB) of [^3H]T808 binding in absence or in presence of a compound is calculated by subtracting the non-specific binding signal in the white matter, thus yielding SB[3H]T808 only and SBcompound. The % displacement by the various compounds is calculated as following: % displacement=100−(SBcompound/SB[3H]T808 only)*100. Validation Data
In each experiment cold T808 is used as a positive internal control. Co-incubation of equimolar amounts of hot and cold T808 is expected to reduce specific binding by approximately 50%.

| % displacement of [3H]T808 (10 nM) at 10 nM [%] | Structure (SMILES) |
| --- | --- |
| 39 | FCCOc1ccc(-c2cn3ccc(NC4CC4)cc3n2)cc1 [Example 124, N-Cyclopropyl-2-[4-(2-fluoroethoxy)phenyl]imidazo[1,2-a]pyridin-7-amine] |
| 31 | F[C@H]1CCN(c2ccn3cc(-c4ccccc4)nc3c2)C1 [Example 31, (S)-7-(3-Fluoropyrrolidin-1-yl)-2-phenyl-imidazo[1,2-a]pyridine] |
| 37 | Oc1ccc(-c2cn3ccc(N4CCC4)cc3n2)cc1 [Example 40, 4-(7-Azetidin-1-yl-imidazo[1,2-a]pyridin-2-yl)-phenol] |
| 55 | CNc1ccn2cc(-c3ccc(OC)c(F)c3)nc2c1 [Example 95, N-[2-(3-Fluoro-4-methoxy-phenyl)-imidazo[1,2-a]pyridin-7-yl]-methyl-amine] |
| 34 | CNc1ccn2cc(-c3cc(C)ccc3O)nc2c1 [Example 128, 4-Methyl-2-(7-methylamino-imidazo[1,2-a]pyridin-2-yl)-phenol] |
| 14 | CNc1ccn2cc(-c3ccc(N(C)Cc4ccccc4)cc3)nc2c1 [Example 110, 2-(4-(benzyl(methyl)amino)phenyl)-N-methylimidazo[1,2-a]pyridin-7-amine] |
| 32 | FCOc1ccc(-c2cn3ccc(N4CCC4)cc3n2)cc1 [Example 70, 7-Azetidin-1-yl-2-(4-fluoromethoxy-phenyl)-imidazo[1,2-a]pyridine] |
| 12 | CNc1ccn2cc(-c3cccnc3)nc2c1 [Example 126, Methyl-(2-pyridin-3-yl-imidazo[1,2-a]pyridin-7-yl)-amine] |
| 27 | CN(CCF)c1ccn2cc(-c3ccc4c(c3)OCCO4)nc2c1 [Example 23, [2-(2,3-Dihydro-benzo[1,4]dioxin-6-yl)-imidazo[1,2-a]pyridin-7-yl]-(2-fluoro-ethyl)-methyl-amine] |
| 17 | Cc1cccc(-c2cn3ccc(N4CCC(CCF)CC4)cc3n2)c1 [Example 85, 7-[4-(2-Fluoro-ethyl)-piperidin-1-yl]-2-m-tolyl-imidazo[1,2-a]pyridine] |
| 25 | CNc1ccn2cc(-c3cc(OC)cc(OC)c3)nc2c1 [Example 92, 2-(3,5-dimethoxyphenyl)-N-methylimidazo[1,2-a]pyridin-7-amine] |
| 57 | CNc1ccn2cc(-c3ccc(C)cc3)nc2c1 [Example 28, N-Methyl-(2-p-tolyl-imidazo[1,2-a]pyridin-7-yl)-amine] |
| 20 | CSc1ccc(-c2cn3ccc(NCCF)cc3n2)cc1 [Example 79, (2-Fluoro-ethyl)-[2-(4-methylsulfanyl-phenyl)-imidazo[1,2-a]pyridin-7-yl]-amine] |
| 25 | Cc1ccc(-c2cn3ccc(NCCF)cc3n2)cc1C [Example 72, [2-(3,4-Dimethyl-phenyl)-imidazo[1,2-a]pyridin-7-yl]-(2-fluoro-ethyl)-amine] |
| 35 | FCCNc1ccn2cc(-c3ccc4c(c3)OCO4)nc2c1 [Example 51, (2-Benzo[1,3]dioxol-5-yl-imidazo[1,2-a]pyridin-7-yl)-(2-fluoro-ethyl)-amine] |
| 46 | CNc1ccn2cc(-c3ccc4c(c3)NC(=O)CO4)nc2c1 [Example 119, 6-(7-Methylamino-imidazo[1,2-a]pyridin-2-yl)-4H-benzo[1,4]oxazin-3-one] |
| 32 | CN(C)c1ccn2cc(-c3ccc(CO)cc3)nc2c1 [Example 90, [4-[7-(Dimethylamino)imidazo[1,2-a]pyridin-2-yl]phenyl]methanol acetic acid adduct] |
| 27 | COc1ccc(-c2cn3ccc(N4CCC(CCF)CC4)cc3n2)cc1 [Example 77, 7-[4-(2-Fluoro-ethyl)-piperidin-1-yl]-2-(4-methoxy-phenyl)-imidazo[1,2-a]pyridine] |
| 47 | CNc1ccn2cc(-c3cc4ccccc4o3)nc2c1 [Example 116, N-[2-(Benzofuran-2-yl)-imidazo[1,2-a]pyridin-7-yl]-methyl-amine] |
| 34 | CNc1ccn2cc(-c3ccc(SC)cc3)nc2c1 [Example 71, Methyl-[2-(4-methylsulfanyl-phenyl)-imidazo[1,2-a]pyridin-7-yl]-amine] |

| % displacement of [3H]T808 (10 nM) at 10 nM [%] | Structure (SMILES) |
| --- | --- |
| 14 | COc1cccc(-c2cn3ccc(N4CCC(F)CC4)cc3n2)c1 [Example 60, 7-(4-Fluoro-piperidin-1-yl)-2-(3-methoxy-phenyl)-imidazo[1,2-a]pyridine] |
| 28 | COc1ccc(-c2cn3ccc(N(C)CCF)cc3n2)cc1 [Example 65, (2-Fluoro-ethyl)-[2-(4-methoxy-phenyl)-imidazo[1,2-a]pyridin-7-yl]-methyl-amine] |
| 20 | FCCNc1ccn2cc(-c3ccc(OCF)cc3)nc2c1 [Example 50, (2-Fluoro-ethyl)-[2-(4-fluoromethoxy-phenyl)-imidazo[1,2-a]pyridin-7-yl]-amine] |
| 49 | Br.CN(C)c1ccn2cc(-c3cccc(O)c3)nc2c1 [Example 82, 3-(7-Dimethylamino-imidazo[1,2-a]pyridin-2-yl)-phenol hydrobromide] |
| 17 | CNc1ccn2cc(-c3sccc3Br)nc2c1 [Example 111, N-[2-(3-Bromo-thiophen-2-yl)-imidazo[1,2-a]pyridin-7-yl]-methyl-amine] |
| 23 | Cc1ccc(-c2cn3ccc(N4CCOCC4)cc3n2)cc1 [Example 36, 7-Morpholin-4-yl-2-p-tolyl-imidazo[1,2-a]pyridine] |
| 23 | FCCNc1ccn2cc(-c3ccc4c(c3)OCCO4)nc2c1 [Example 143, 2-(2,3-dihydrobenzo[b][1,4]dioxin-6-yl)-N-(2-fluoroethyl)imidazo[1,2-a]pyridin-7-amine] |
| 44 | CNc1ccn2cc(-c3ccc(OC)cc3)nc2c1 [Example 74, [2-(4-Methoxy-phenyl)-imidazo[1,2-a]pyridin-7-yl]-methyl-amine] |
| 48 | CNc1ccn2cc(-c3ccc(OC(F)F)cc3)nc2c1 [Example 113, N-[2-(4-Difluoromethoxy-phenyl)-imidazo[1,2-a]pyridin-7-yl]-methyl-amine] |
| 29 | CN(C)c1ccc(-c2cn3ccc(N(C)C)cc3n2)cc1 [Example 16, [2-(4-Dimethylamino-phenyl)-imidazo[1,2-a]pyridin-7-yl]-dimethyl-amine] |
| 39 | CC(=O)O.CCOc1ccc(-c2cn3ccc(NC)cc3n2)cc1 [Example 93, N-[2-(4-Ethoxy-phenyl)-imidazo[1,2-a]pyridin-7-yl]-methyl-amine acetic acid adduct] |
| 40 | FCCNc1ccn2cc(-c3ccccc3)nc2c1 [Example 1, N-(2-Fluoroethyl)-2-phenylimidazo[1,2-a]pyridin-7-amine 2,2,2-trifluoroacetate] |
| 33 | CNc1ccn2cc(-c3ccc(Br)cc3)nc2c1 [Example 114, N-[2-(4-Bromo-phenyl)-imidazo[1,2-a]pyridin-7-yl]-methyl-amine] |
| 27 | FCCOCCOc1ccc(-c2cn3ccc(N4CCC4)cc3n2)cc1 [Example 144, 7-(azetidin-1-yl)-2-(4-(2-(2-fluoroethoxy)ethoxy)phenyl)imidazo[1,2-a]pyridine] |
| 20 | CNc1ccn2cc(-c3ccccc3O)nc2c1 [Example 120, 2-(7-Methylamino-imidazo[1,2-a]pyridin-2-yl)-phenol] |
| 34 | COc1ccc(-c2cn3ccc(NC4CC4)cc3n2)cc1 [Example 67, Cyclopropyl-[2-(4-methoxy-phenyl)-imidazo[1,2-a]pyridin-7-yl]-amine] |
| 27 | Cc1ccc(-c2cn3ccc(NCCF)cc3n2)cc1 [Example 46, (2-Fluoro-ethyl)-(2-p-tolyl-imidazo[1,2-a]pyridin-7-yl)-amine] |
| 52 | Cc1ccc(-c2cn3ccc(N(C)C)cc3n2)cc1 [Example 27, N,N-Dimethyl-(2-p-tolyl-imidazo[1,2-a]pyridin-7-yl)-amine] |
| 27 | COc1ccc(-c2cn3ccc(N4CCCC4)cc3n2)cc1 [Example 11, 2-(4-Methoxy-phenyl)-7-pyrrolidin-1-yl-imidazo[1,2-a]pyridine] |

Same assay, conditions: compound 1 uM, radioligand [3H]T808 10 nM

| % displacement of [3H]T808 (10 nM) at 1 uM [%] | Structure (SMILES) |
| --- | --- |
| 93 | FCCNc1ccn2cc(-c3ccccc3)nc2c1 [Example 1, N-(2-Fluoroethyl)-2-phenylimidazo[1,2-a]pyridin-7-amine 2,2,2-trifluoroacetate] |
